This assay has as its system bedsores. The assay is described as follows: Clinical observation of bedsores in dementia patients with agitation treated orally with nabilone. The format is in vivo. How it is done:
Patients with dementia having agitation were treated orally at a dose of 0.5 mg nabilone twice a day initially and then going up to a total of 2 mg per day to reduce agitation. […] The number of patients where this effect was observed was six. The perceived impact on healing was significant with healing times varying between 3-6 weeks for small sores.

As to `CCCCCCC(C)(C)c1cc(O)c2c(c1)OC(C)(C)C1CCC(=O)CC21` (stereo not shown) [nabilone], the “large sores in treated patients” value (oral 0.5 mg twice a day up to 2 mg per day) is recorded as “No large sores were observed”. Moreover, the “healing of existing bedsores” value (patients who did have bedsores, oral 0.5 mg twice a day up to 2 mg per day) was “the bedsores appeared to heal faster”. Moreover, the “number and/or severity of bedsores” value (patients with dementia having agitation, oral 0.5 mg twice a day initially, up to total 2 mg per day, effect observed in six patients) is “perceived reduction in the number and/or severity of bedsores”. Moreover, under “small sores, oral 0.5 mg twice a day up to 2 mg per day”, the “healing times for small sores” value was 3-6 weeks.

These data come from patent US20210052544A1, “METHODS OF TREATING AND/OR […] USING NABILONE” (Solantech Inc., priority 2018, published 2021).
